molecular target: T1, nitrogen monoxide synthase (NO synthase) (Rattus norvegicus, UniProt P29476); test: HTS-NOS assay (nitrogen monoxide synthase assay); format: biochemical; conditions: compound at 10 μM; enzyme preparation from rat cerebella; [3H]-arginine substrate
T1 construct: the supernatant was then decanted off and frozen in portions; from tissue; host or cells: rat cerebellum (homogenate, 20,000 g supernatant)
Source text: This assay makes it possible to determine the percentage inhibition of NO synthase by a compound of the general formula I used according to the invention by measuring NOS activity on exposure to the compound. NO synthase is here mixed under suitable conditions together with radioactively labelled arginine and the particular compound of the general formula I. After termination of the NO formation reaction at a predetermined time, the quantity of unconverted arginine is directly or indirectly determined. […] This assay may be carried out at follows: • (a) Incubation of the NO synthase with labelled arginine as the substrate in a reaction vessel, • (b) Separation of the labelled arginine from the labelled citrulline optionally arising as a product of the enzymatic reaction at a time at which the concentration of citrulline is rising, • (c) Measurement of the quantity of arginine separated in each case.
Separation is performed by means of a filter plate membrane.
Radioactive arginine is used as the substrate in this HTS-NOS assay. Depending on the type of microtitre plate (MTP), the assay volume may be selected in the range between 25 μl and 250 μl. Depending on the enzyme source used, cofactors and coenzymes are added. The batches are incubated in this microtitre plate (assay MTP) according to step (a) at room temperature and, depending on the enzyme activity used (units), lasts between 5 and 60 minutes. On completion of incubation (step (a)), the plate is placed in a cell harvester, which is equipped with an MTP which has a cation exchange membrane as a filter bottom (filter MTP). All the batches from the assay MTP are transferred into this filter MTP and suction filtered through a cation exchange filter plate, a paper filter loaded with phosphate groups. The filter MTP is then washed with buffer or water. This procedure binds the remaining substrate arginine onto the cation exchanger, while the enzymatically formed radioactive citrulline is quantitatively eluted. Once the filter MTP has been dried and scintillation liquid added, the bound arginine can be counted in the scintillation counter. Low radioactivity indicates an uninhibited NOS reaction. An inhibited enzyme reaction means that the radioactive arginine has not been converted. This means that there is a high level of radioactivity on the filter.
• Arginine, L-[2,3,4-^3H]-monohydrochloride; item no. […] The pH value of the buffer was adjusted to 7.4 at 25° C. • Washing medium: H2O Enzyme Preparation
Rat cerebella were used as the starting tissue. The animals were stunned and killed, the brain tissue, the cerebellum, was dissected out, 1 ml of enzyme preparation buffer (4° C.) was added per cerebellum, and the tissue was disrupted for 1 min at 6000 rpm in a Polytron homogeniser. The mixture was then centrifuged at 4° C. for 15 min at 20,000 g, and the supernatant was then decanted off and frozen in portions at −80° C. (discarding the precipitate).
96-Well MTPs with a well capacity of ≦250 μl were used Pipetting sequence: see table 1:
Once the pipetting operation was complete, a lid was laid on top of this MTP (assay MTP). Incubation at 25° C. (room temperature (RT)) for 5-60 min, depending on the quantity and activity of the enzyme used.
The contents of the assay MTP were then transferred with the assistance of a 96 well cell harvester into a 96 well cation exchange MTP (filter MTP) and suction filtered. A single washing with […] of H2O (from a trough) was then performed.
The plate was then dried for 1 h at 60° C. in a drying cabinet. The bottom of the filter MTP was then carefully sealed from beneath with a “back seal”. 35 μl of scintillating material were then pipetted into each well. The top of the plate was also sealed with a “top seal”. After 1 hour's waiting time, the plate was assessed on the β-counter.

Question: With `Cc1nc(NC2CC(C)(c3ccc(Oc4ccccc4)cc3)OC2=O)ccc1Br` (stereo not shown) [Example 17, 3-(5-Bromo-6-methyl-pyridin-2-ylamino)-5-methyl-5-(4-phenoxy-phenyl)-dihydro-furan-2-one] as the compound, how does the inhibition at 10 µM read?
Answer: 43%

Question: How did the inhibition at 10 µM turn out when `CC(C)(C)c1ccc(C2(C)CC(Nc3ncccc3[N+](=O)[O-])C(=O)O2)cc1` (stereo not shown) [Example 18, 5-(4-tert-Butyl-phenyl)-5-methyl-3-(3-nitro-pyridin-2-ylamino)-dihydro-furan-2-one] was run?
Answer: 40%

Question: Which inhibition at 10 µM does the source give for `CC1(c2ccc(Oc3ccccc3)cc2)CC(Nc2ncccc2OCc2ccccc2)C(=O)O1` (stereo not shown) [Example 19, 3-(3-Benzyloxy-pyridin-2-ylamino)-5-methyl-5-(4-phenoxy-phenyl)-dihydro-furan-2-one] here?
Answer: 40%

Question: With `CC(C)(C)c1ccc(C2(C)CC(Nc3ncccc3OCc3ccccc3)C(=O)O2)cc1` (stereo not shown) [Example 20, 3-(3-Benzyloxy-pyridin-2-ylamino)-5-(4-tert-butyl-phenyl)-5-methyl-dihydro-furan-2-one] as the compound, how does the inhibition at 10 µM read?
Answer: 54%

Question: For `Cc1cc(C)nc(NC2CC(C)(c3ccc(Oc4ccccc4)cc3)OC2=O)c1` (stereo not shown) [Example 21, 3-(4,6-Dimethyl-pyridin-2-ylamino)-5-methyl-5-(4-phenoxy-phenyl)-dihydro-furan-2-one], which inhibition at 10 µM is on record?
Answer: 91%

Question: `Cc1cc(C)nc(NC2CC(C)(c3ccc(C(C)(C)C)cc3)OC2=O)c1` (stereo not shown) [Example 22, 5-(4-tert-Butyl-phenyl)-3-(4,6-dimethyl-pyridin-2-yl-amino)-5-methyl-dihydrofuran-2-one] was tested. Which inhibition at 10 µM did it give?
Answer: 44%

Question: With `Cc1ccnc(NC2CC(C)(c3ccc(Oc4ccccc4)cc3)OC2=O)c1` (stereo not shown) [Example 23, 5-Methyl-3-(4-methyl-pyridin-2-ylamino)-5-(4-phenoxy-phenyl)-dihydro-furan-2-one] as the compound, how does the inhibition at 10 µM read?
Answer: 79%

Question: With `Cc1ccnc(NC2CC(C)(c3ccc(C(C)(C)C)cc3)OC2=O)c1` (stereo not shown) [Example 24, 5-(4-tert-Butyl-phenyl)-5-methyl-3-(4-methyl-pyridin-2-ylamino)-dihydro-furan-2-one] as the compound, how does the inhibition at 10 µM read?
Answer: 84%

Question: With `CC1(c2ccc(C#N)cc2)CC(Nc2ncc(Br)cc2[N+](=O)[O-])C(=O)O1` (stereo not shown) [Example 25, 4-[4-(5-Bromo-3-nitro-pyridin-2-ylamino)-2-methyl-5-oxo-tetrahydro-furan-2-yl]-benzonitrile] as the compound, how does the inhibition at 10 µM read?
Answer: 45%

Question: With `CC1(c2ccc(C#N)cc2)CC(Nc2ncc(Br)cn2)C(=O)O1` (stereo not shown) [Example 26, 4-[4-(5-Bromo-pyrimidin-2-ylamino)-2-methyl-5-oxo-tetrahydro-furan-2-yl]-benzonitrile] as the compound, how does the inhibition at 10 µM read?
Answer: 43%

Question: Which inhibition at 10 µM does the source give for `CCCc1cccc(NC2CC(C)(c3cc4ccccc4s3)OC2=O)n1` (stereo not shown) [Example 27, 5-Benzo[b]thiophen-2-yl-5-methyl-3-(6-propyl-pyridin-2-ylamino)-dihydro-furan-2-one] here?
Answer: 43%

Question: For `Cc1cc(C)nc(NC2CC(C)(c3ccc(C(C)C)cc3)OC2=O)c1` (stereo not shown) [Example 28, 3-(4,6-Dimethyl-pyridin-2-ylamino)-5-(4-isopropyl-phenyl)-5-methyl-dihydro-furan-2-one], which inhibition at 10 µM is on record?
Answer: 68%

Question: Which inhibition at 10 µM does the source give for `Cc1cc(C)nc(NC2CC(C)(c3cc4ccccc4o3)OC2=O)c1` (stereo not shown) [Example 29, 5-Benzofuran-2-yl-3-(4,6-dimethyl-pyridin-2-ylamino)-5-methyl-dihydro-furan-2-one] here?
Answer: 40%

Question: For `Cc1ccnc(NC2CC(C)(c3cc4ccccc4s3)OC2=O)c1` (stereo not shown) [Example 30, 5-Benzo[b]thiophen-2-yl-5-methyl-3-(4-methyl-pyridin-2-ylamino)-dihydro-furan-2-one], which inhibition at 10 µM is on record?
Answer: 41%

Question: Which inhibition at 10 µM does the source give for `Cc1ccnc(NC2CC(C)(c3cc4ccccc4o3)OC2=O)c1` (stereo not shown) [Example 31, 5-Benzofuran-2-yl-5-methyl-3-(4-methyl-pyridin-2-ylamino)-dihydro-furan-2-one] here?
Answer: 44%

Question: For `CC1(c2ccc3c(c2)OCO3)CC(Nc2n[nH]cc2C#N)C(=O)O1` (stereo not shown) [Example 32, 3-(5-Benzo[1,3]dioxol-5-yl-5-methyl-2-oxo-tetrahydro-furan-3-ylamino)-1H-pyrazole-4-carbonitrile], which inhibition at 10 µM is on record?
Answer: 41%

Question: For `CCOC(=O)c1c[nH]nc1NC1CC(C)(c2ccc3c(c2)OCO3)OC1=O` (stereo not shown) [Example 33, 3-(5-Benzo[1,3]dioxol-5-yl-5-methyl-2-oxo-tetrahydro-furan-3-ylamino)-1H-pyrazole-4-carboxylic acid ethyl ester], which inhibition at 10 µM is on record?
Answer: 45%

Question: For `CC1(c2ccc3c(c2)OCO3)CC(Nc2ncccc2[N+](=O)[O-])C(=O)O1` (stereo not shown) [Example 34, 5-Benzo[1,3]dioxol-5-yl-5-methyl-3-(3-nitro-pyridin-2-ylamino)-dihydro-furan-2-one], which inhibition at 10 µM is on record?
Answer: 40%

Question: `Cc1cc(C)nc(NC2CC(C)(c3ccc4c(c3)CCCC4)OC2=O)c1` (stereo not shown) [Example 35, 3-(4,6-Dimethyl-pyridin-2-ylamino)-5-methyl-5-(5,6,7,8-tetrahydro-naphthalen-2-yl)-dihydro-furan-2-one] was tested. Which inhibition at 10 µM did it give?
Answer: 42%

Question: With `Cc1cc(C)nc(NC2CC(C)(c3ccc4ccccc4c3)OC2=O)c1` (stereo not shown) [Example 36, 3-(4,6-Dimethyl-pyridin-2-ylamino)-5-methyl-5-naphthalen-2-yl-dihydro-furan-2-one] as the compound, how does the inhibition at 10 µM read?
Answer: 65%

Question: `Cc1ccnc(NC2CC(C)(c3ccc4c(c3)OCO4)OC2=O)c1` (stereo not shown) [Example 37, 5-Benzo[1,3]dioxol-5-yl-5-methyl-3-(4-methyl-pyridin-2-ylamino)-dihydro-furan-2-one] was tested. Which inhibition at 10 µM did it give?
Answer: 50%

Question: Which inhibition at 10 µM does the source give for `Cc1ccnc(NC2CC(C)(c3ccc4c(c3)CCCC4)OC2=O)c1` (stereo not shown) [Example 38, 5-Methyl-3-(4-methyl-pyridin-2-ylamino)-5-(5,6,7,8-tetrahydro-naphthalen-2-yl)-dihydro-furan-2-one] here?
Answer: 55%

Question: How did the inhibition at 10 µM turn out when `Cc1ccc(NC2CC(C)(c3ccc4c(c3)OCO4)OC2=O)nc1` (stereo not shown) [Example 39, 5-Benzo[1,3]dioxol-5-yl-5-methyl-3-(5-methyl-pyridin-2-ylamino)-dihydro-furan-2-one] was run?
Answer: 44%

Question: For `Cc1cccc(NC2CC(C)(c3ccc4c(c3)OCO4)OC2=O)n1` (stereo not shown) [Example 40, 5-Benzo[1,3]dioxol-5-yl-5-methyl-3-(6-methyl-pyridin-2-ylamino)-dihydro-furan-2-one], which inhibition at 10 µM is on record?
Answer: 53%

Question: How did the inhibition at 10 µM turn out when `CC1(c2ccc3c(c2)CCCC3)CC(Nc2ncc(Br)cc2[N+](=O)[O-])C(=O)O1` (stereo not shown) [Example 41, 3-(5-Bromo-3-nitro-pyridin-2-ylamino)-5-methyl-5-(5,6,7,8-tetrahydro-naphthalen-2-yl)-dihydro-furan-2-one] was run?
Answer: 53%

Question: `CC(C)C1(c2ccccc2)CC(Nc2ncc(Br)cc2[N+](=O)[O-])C(=O)O1` (stereo not shown) [Example 42, 3-(5-Bromo-3-nitro-pyridin-2-ylamino)-5-isopropyl-5-phenyl-dihydro-furan-2-one] was tested. Which inhibition at 10 µM did it give?
Answer: 41%

Question: Which inhibition at 10 µM does the source give for `CC(C)C1(c2ccccc2)CC(Nc2ccc([N+](=O)[O-])cn2)C(=O)O1` (stereo not shown) [Example 43, 5-Isopropyl-3-(5-nitro-pyridin-2-ylamino)-5-phenyl-dihydro-furan-2-one] here?
Answer: 45%

Question: For `CC1(c2ccc3ccccc3c2)CC(Nc2ccc([N+](=O)[O-])cn2)C(=O)O1` (stereo not shown) [Example 44, 5-Methyl-5-naphthalen-2-yl-3-(5-nitro-pyridin-2-ylamino)-dihydro-furan-2-one], which inhibition at 10 µM is on record?
Answer: 47%

Question: Which inhibition at 10 µM does the source give for `CC(C)C1(c2ccccc2)CC(Nc2ncccn2)C(=O)O1` (stereo not shown) [Example 45, 5-Isopropyl-5-phenyl-3-(pyrimidin-2-ylamino)-dihydro-furan-2-one] here?
Answer: 58%

Question: Which inhibition at 10 µM does the source give for `CCOC(=O)c1c[nH]nc1NC1CC(C)(c2ccc(I)cc2)OC1=O` (stereo not shown) [Example 46, 3-[5-(4-Iodo-phenyl)-5-methyl-2-oxo-tetrahydro-furan-3-ylamino]-1H-pyrazole-4-carboxylic acid ethyl ester] here?
Answer: 44%

Question: Which inhibition at 10 µM does the source give for `CC1(c2ccc(Br)cc2)CC(Nc2ccc(Br)cn2)C(=O)O1` (stereo not shown) [Example 47, 5-(4-Bromo-phenyl)-3-(5-bromo-pyridin-2-ylamino)-5-methyl-dihydro-furan-2-one] here?
Answer: 54%
